Patent US7511047B2, “Kinase inhibitors” (Cytopia Research Pty Ltd, priority 2002, dated 2009)

What was measured:
Assay type in all cases: biochemical
[1] = molecular target: T1, Jak3 (Homo sapiens, UniProt P52333); assay: JAK3 kinase domain assay (ELISA or Alphascreen); conditions: capacity to inhibit 50% of activity at 50 μM; read-out: Jak3 inhibitory activity
T1 construct: The kinase domain of humanJAK3 was amplified from U937mRNA; His tag (from pFastBac HTb vector) (N); made in house; host or cells: baculovirus; Sf9 insect cells for virus, High Five cells for large-scale production
T1 sequence (P52333 822-1111 limits assumed): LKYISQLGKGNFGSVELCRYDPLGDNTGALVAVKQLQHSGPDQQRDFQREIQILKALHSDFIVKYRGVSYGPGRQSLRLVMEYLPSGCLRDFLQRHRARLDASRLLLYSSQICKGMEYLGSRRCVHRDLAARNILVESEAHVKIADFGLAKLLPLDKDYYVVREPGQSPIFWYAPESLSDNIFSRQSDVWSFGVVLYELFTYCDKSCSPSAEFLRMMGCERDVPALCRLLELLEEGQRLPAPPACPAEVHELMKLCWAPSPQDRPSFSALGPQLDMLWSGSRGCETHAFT
Method: (§1) For screening purposes, compounds were diluted in 96 well plates at a concentration of 20 μM. Plates were warmed at 37° C. for 30 minutes before assay.
(§2) • JAK2 PCR products were cloned into the pFastBac HTc expression vector (Gibco) via the Sal I and Not I sites. The JAK2 plasmid was then transformed into competent DH10Bac cells (Gibco), and the recombinant baculovirus produced prepared for transfection into Sf9 insect cells. JAK3 • The kinase domain of humanJAK3 was amplified from U937mRNA using the polymerase chain reaction with the following primers:
• JAK3 PCR products were cloned into the pFastBac HTb expression vector (Gibco) via the Xho I and Kpn I sites. The JAK3 plasmid was then transformed into competent DH10Bac cells (Gibco), and the recombinant baculovirus produced prepared for transfection into Sf9 insect cells. TYK2 • The kinase domain of humanTYK2 was amplified from A549 mRNA using the polymerase chain reaction with the following primers: […]
(§3) Baculovirus preparations from each of the JAK family members were infected into five litres of High Five cells (Invitrogen) grown in High Five serum free medium (Invitrogen) to a cell density of approximately 1-2×10^6 cells/ml. Cells are infected with virus at a MOI of 0.8-3.0. Cells were harvested and lysed. JAK kinase domains were purified by affinity chromatography on a Probond (Invitrogen) nickel chelate affinity column.
(§4) Kinase assays were performed either in a 96 well capture-based ELISA assay or in 384 well Optiplates (Packard) using an Alphascreen Protein Tyrosine Kinase kit. In either casse using approximately 1.5 μg of affinity purified PTK domain in the presence of 50 mM HEPES, pH 7.5, 10 mM MgCl2, 150 mM NaCl and 10 μM-1 mM ATP. The biotinylated substrate biotin-EGPWLEEEEEAYGWMDF-NH2 (SEQ ID NO:9) (final concentration 5 μM) was used as substrate. In the ELISA assay tyrosine phosphorylation was quantitated following transfer to an avidin coated ELISA plate using peroxidase-linked anti-phospho-tyrosine antibody PY20. In the Alphascreen assay, Alphascreen phosphotyrosine acceptor beads followed by streptavidin donor beads were added under subdued light. The ELISA plates were read on a BMG Fluorostar, the Alphascreen plates were read on a Packard Fusion Alpha. Inhibitors were added to the assays fifteen minutes prior to the addition of ATP. Inhibitors were added in aqueous DMSO, with DMSO concentrations never exceeding 1%.

[2] = molecular target: kdr (Homo sapiens, UniProt P35968); assay: kdr kinase assay (ELISA or Alphascreen); conditions: capacity to inhibit 50% of activity at 50 μM; read-out: kdr inhibitory activity
kdr, sequence (P35968 834-1162 limits assumed, species assumed): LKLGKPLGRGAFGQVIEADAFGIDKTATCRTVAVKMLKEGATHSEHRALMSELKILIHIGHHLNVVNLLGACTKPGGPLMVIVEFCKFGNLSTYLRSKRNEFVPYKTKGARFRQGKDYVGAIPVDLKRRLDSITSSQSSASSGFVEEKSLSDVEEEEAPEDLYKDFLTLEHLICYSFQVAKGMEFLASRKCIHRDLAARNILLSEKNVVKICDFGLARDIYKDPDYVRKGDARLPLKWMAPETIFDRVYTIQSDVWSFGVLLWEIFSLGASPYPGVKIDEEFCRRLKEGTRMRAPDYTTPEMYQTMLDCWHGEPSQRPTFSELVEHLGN
Method: as §1, §4

[3] = molecular target: T2, abl (Homo sapiens, UniProt P00519); assay: abl kinase assay (ELISA or Alphascreen); conditions: capacity to inhibit 50% of activity at 50 μM; read-out: abl inhibitory activity
T2 sequence (P00519 242-493 limits assumed): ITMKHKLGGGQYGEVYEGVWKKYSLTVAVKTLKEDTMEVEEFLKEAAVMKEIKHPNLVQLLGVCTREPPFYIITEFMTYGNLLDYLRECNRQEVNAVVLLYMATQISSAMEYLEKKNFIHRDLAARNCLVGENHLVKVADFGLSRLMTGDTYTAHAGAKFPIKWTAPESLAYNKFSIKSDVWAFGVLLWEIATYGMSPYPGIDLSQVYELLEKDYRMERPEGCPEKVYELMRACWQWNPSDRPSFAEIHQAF
Method: as §1, §4

[4] = molecular target: T3, Jak2 (Homo sapiens, UniProt O60674); assay: JAK2 kinase domain assay (ELISA or Alphascreen); conditions: capacity to inhibit 50% of activity at 50 μM; read-out: Jak2 inhibitory activity
T3 construct: The kinase domain of humanJAK2 was amplified from U937mRNA; His tag (from pFastBac HTc vector) (N); made in house; host or cells: baculovirus; Sf9 insect cells for virus, High Five cells for large-scale production
T3 sequence (O60674 849-1124 limits assumed): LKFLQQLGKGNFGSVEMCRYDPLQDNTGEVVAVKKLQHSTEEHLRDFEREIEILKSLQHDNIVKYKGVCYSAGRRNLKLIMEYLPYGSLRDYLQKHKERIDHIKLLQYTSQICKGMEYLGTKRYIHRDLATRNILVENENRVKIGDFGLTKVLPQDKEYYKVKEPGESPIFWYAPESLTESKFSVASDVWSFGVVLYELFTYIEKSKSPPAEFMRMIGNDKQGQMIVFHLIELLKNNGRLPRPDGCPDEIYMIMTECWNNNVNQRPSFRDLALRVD
Method: as §1
• JAK1 PCR products were cloned into the pFastBac HTb expression vector (Gibco) via the Xho I and Kpn I sites. The JAK1 plasmid was then transformed into competent DH10Bac cells (Gibco), and the recombinant baculovirus produced prepared for transfection into Sf9 insect cells. JAK2 • The kinase domain of humanJAK2 was amplified from U937mRNA using the polymerase chain reaction with the following primers:
as §2, with “primers: […]” for “primers:”
as §3, §4

[5] = molecular target: hck (Homo sapiens, UniProt P08631); assay: hck kinase assay (ELISA or Alphascreen); conditions: capacity to inhibit 50% of activity at 50 μM; read-out: hck inhibitory activity
hck, sequence (P08631 262-515 limits assumed, species assumed): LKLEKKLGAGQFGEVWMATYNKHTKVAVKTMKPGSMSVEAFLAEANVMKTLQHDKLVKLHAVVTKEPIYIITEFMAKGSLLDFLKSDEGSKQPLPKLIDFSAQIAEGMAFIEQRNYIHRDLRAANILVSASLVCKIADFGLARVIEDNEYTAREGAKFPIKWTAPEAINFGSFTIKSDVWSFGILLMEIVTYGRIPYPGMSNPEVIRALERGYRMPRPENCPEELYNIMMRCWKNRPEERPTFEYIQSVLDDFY
Method: as §1, §4

| SMILES | inhibition at 50 µM [1] | inhibition at 50 µM [2] | inhibition at 50 µM [3] | inhibition at 50 µM [4] | inhibition at 50 µM [5] |
| --- | --- | --- | --- | --- | --- |
| COc1ccc([C@H](C)Nc2cncc(-n3cnc4ccccc43)n2)cc1 | < 50% | > 50% | > 50% | < 50% | – |
| COCC(=O)Nc1ccc2ncn(-c3cncc(N[C@@H](C)c4ccccc4)n3)c2c1 | < 50% | > 50% | > 50% | > 50% | > 50% |
| C[C@H](Nc1cncc(-n2cnc3ccccc32)n1)c1ccccc1 | < 50% | > 50% | > 50% | > 50% | > 50% |
| C[C@H](Nc1cncc(-n2cnc3cc(NS(C)(=O)=O)ccc32)n1)c1ccccc1 | < 50% | > 50% | > 50% | > 50% | > 50% |
| C[C@@H](Nc1cncc(-n2ccnc2)n1)c1ccccc1 | < 50% | < 50% | > 50% | < 50% | > 50% |
| Fc1ccc(CNc2cncc(-n3ccnc3)n2)cc1 | > 50% | < 50% | < 50% | < 50% | > 50% |
| c1cn(-c2cncc(Nc3ccc(N4CCOCC4)cc3)n2)cn1 | < 50% | < 50% | > 50% | > 50% | > 50% |
| C[C@H](Nc1cncc(-n2cnc3cc(NC(=O)c4ccccc4)ccc32)n1)c1ccccc1 | < 50% | > 50% | > 50% | < 50% | > 50% |
| C[C@H](Nc1cncc(-n2cnc3cnccc32)n1)c1ccccc1 | > 50% | > 50% | > 50% | > 50% | > 50% |
| C[C@H](Nc1cncc(-n2cnc3ccc(C(=O)N4CCOCC4)cc32)n1)c1ccccc1 | < 50% | > 50% | > 50% | < 50% | > 50% |
| C[C@H](Nc1cncc(-n2cnc3ccccc32)n1)c1ccc(Br)cc1 | < 50% | > 50% | > 50% | < 50% | – |
| C[C@H](Nc1cncc(-n2cnc3ccc(NC(=O)c4cccnc4)cc32)n1)c1ccccc1 | < 50% | > 50% | > 50% | > 50% | > 50% |
| Fc1ccc(CNc2cncc(-n3cnc4ccccc43)n2)cc1 | < 50% | < 50% | > 50% | > 50% | > 50% |
| CC(Nc1cncc(-n2cnc3ccccc32)n1)c1cccnc1 (stereo not shown) | > 50% | > 50% | > 50% | > 50% | > 50% |
| C[C@H](Nc1cncc(-n2cnc3ccc(C(=O)NCCO)cc32)n1)c1ccccc1 | > 50% | > 50% | > 50% | > 50% | > 50% |
| CC(=O)Nc1ccc2c(c1)ncn2-c1cncc(N[C@@H](C)c2ccccc2)n1 | < 50% | > 50% | > 50% | < 50% | > 50% |
| C[C@H](Nc1cncc(-n2cnc3cc(C(=O)NCCO)ccc32)n1)c1ccccc1 | > 50% | > 50% | > 50% | > 50% | > 50% |
| C[C@H](Nc1cncc(-n2cnc3ccncc32)n1)c1ccccc1 | > 50% | > 50% | > 50% | > 50% | > 50% |
| C[C@@H](Nc1cncc(-n2cnc3ncccc32)n1)c1ccccc1 | < 50% | < 50% | < 50% | < 50% | < 50% |
| C[C@H](Nc1cncc(-n2cnc3cc(N)ccc32)n1)c1ccccc1 | < 50% | > 50% | > 50% | > 50% | > 50% |
| C[C@H](Nc1cncc(-n2cnc3cc(NCc4cccnc4)ccc32)n1)c1ccccc1 | > 50% | > 50% | > 50% | > 50% | > 50% |
| CC(Nc1cncc(-n2cnc3ccc(CN4CCN(C)CC4)cc32)n1)c1ccc(F)cc1 (stereo not shown) | < 50% | > 50% | < 50% | < 50% | > 50% |
| C[C@H](Nc1cncc(-n2cnc3cc(NC(=O)C4CCCN4)ccc32)n1)c1ccccc1 (stereo partly shown) | > 50% | > 50% | < 50% | > 50% | > 50% |
| C[C@H](Nc1cncc(-n2cnc3cc(CN4CCN(C)CC4)ccc32)n1)c1ccccc1 | < 50% | > 50% | < 50% | < 50% | > 50% |
| Cc1cn(-c2cncc(NCc3ccc(F)cc3)n2)cn1 | < 50% | < 50% | < 50% | > 50% | < 50% |
| COCC(=O)Nc1ccc2c(c1)ncn2-c1cncc(N[C@@H](C)c2ccccc2)n1 | < 50% | > 50% | > 50% | < 50% | > 50% |
| C[C@H](Nc1cncc(-n2cnc3ccc(NC(=O)c4cnccn4)cc32)n1)c1ccccc1 | < 50% | > 50% | < 50% | > 50% | > 50% |
| C[C@H](Nc1cncc(-n2cnc3ccc(C(N)=O)cc32)n1)c1ccccc1 | < 50% | > 50% | > 50% | > 50% | > 50% |
| C[C@H](Nc1cncc(-n2cnc3cc(NC(=O)c4cccnc4)ccc32)n1)c1ccccc1 | < 50% | > 50% | > 50% | > 50% | > 50% |
| C[C@H](Nc1cncc(-n2cnc3cc(C(N)=O)ccc32)n1)c1ccccc1 | < 50% | > 50% | > 50% | > 50% | > 50% |
